What was measured:
HCC827 [1] = assay: BrdU proliferation assay, 3D cell culture; format: cell-based; conditions: Homo sapiens, HCC827, 3D cell culture, ±SD, N = 2
Procedure: (§1) Cells were grown in 96 well Perfecta 3 D hanging drop plates 5000 cell/well for 4 days until spheres were formed (and checked under the microscope). After sphere formation cells were treated with compounds followed by 72 h incubation. Cell viability assay was performed according to the manufacturer’s instruction, using CellTiter GLO 3 D for 3 D cell culture (Promega); cell incubation was 5 min on the shaker followed by 25 min incubation in the dark. Plates were read using PE EnVision luminescence.
(§2) Proliferation assay was performed using Cell Proliferation ELISA, BrdU (Sigma, St. Louis, MO, USA). Briefly, 48 h hours after compound addition, 10 µM of BrdU was added to each well and incubated for following 24 h. After incubation, single cell suspension was made for 3 D cell culture in the new 96 well plate. Plates were centrifuged and supernatants were removed from each plate (for 2 D and 3 D cell culture) followed by 60 min incubation at 60° C. The rest of the proliferation assay was performed according to the manufacturer instructions.
(§3) Calculation of IC50 data, curves and QC analysis is made by using Excel tools and GraphPadPrism software (La Jolla, CA), v. […] QC criteria parameters (Z', S:B, R2, HillSlope) were checked for every IC50 curve.

A549 [2] = assay: MTS cell viability (cytotoxicity) assay, 2D cell culture; format: cell-based; conditions: Homo sapiens, A549, 2D cell culture, 72 h, ±SD, N = 2, read-out: IC50 antitumor activity A549 2D
Procedure: (§4) Compounds are diluted 1:3. 500 nL (for 2 D cell culture) or 400 nL (for 3 D cell culture) of compound were transferred from mother plate to test plate by using Mosquito (TTP labtech). DMSO percentage in test concentrations was 0.5 − 1.0%. Starting concentration of the test compounds and standard compound doxorubicin was 50 µM (2 D cell culture) or 100 µM (3 D cell culture).
(§5) Cells were grown in 96 well cell star polystyrene plates. 10,000 cells/well were seeded in wells 4 h prior the treatment with different compounds concentrations and incubated for 72 h. A cell viability assay was performed according to the manufacturer’s instruction, using CellTiter 96 aqueous solution, MTS kit (Promega, Madison, WI, USA). After 0.5–2 h of cell incubation with MTS in 2 D cell culture, the plates were read using PE EnVision absorbance at 490 nm. […] Since we prefer homogeneous assays (mix and read procedures) and therefore MTS is more practical (one step less than MTT). MTS is more sensitive and accurate in comparison with MTT assay.
as §3

HCC827 [3] = assay: as above; format: cell-based; conditions: Homo sapiens; HCC827, 2D cell culture, 72 h, MTS; ±SD, N = 2; read-out: IC50 antitumor activity HCC827 2D
Procedure: as §4, §5, §3

NCI-H358 [4] = assay: as above; format: cell-based; conditions: Homo sapiens; NCI-H358, 2D cell culture, 72 h, MTS; ±SD, N = 2; read-out: IC50 antitumor activity NCI-H358 2D
Procedure: as §4, §5, §3

A549 [5] = assay: BrdU proliferation assay, 2D cell culture; format: cell-based; conditions: Homo sapiens, A549, 2D cell culture, ±SD, N = 2
Procedure: Cells were grown in 96 well cell star polystyrene plates. 10,000 cells/well were seeded in wells 4 h prior the treatment with different compounds concentrations and incubated for 72 h. A cell viability assay was performed according to the manufacturer’s instruction, using CellTiter 96 aqueous solution, MTS kit (Promega, Madison, WI, USA). After 0.5–2 h of cell incubation with MTS in 2 D cell culture, the plates were read using PE EnVision absorbance at 490 nm. The results for each of tested compounds are reported as growth percentages from two independent concentrations curves compared with the untreated control cells after drug exposure. Since we prefer homogeneous assays (mix and read procedures) and therefore MTS is more practical (one step less than MTT). MTS is more sensitive and accurate in comparison with MTT assay.
as §2
Calculation of IC50 data, curves and QC analysis is made by using Excel tools and GraphPadPrism software (La Jolla, CA), v. 5.03. In brief, individual concentration–effect curves are generated by plotting the logarithm of the tested concentration of tested compounds (X) versus corresponding percent inhibition values (Y) using least squares (ordinary) fit. […] QC criteria parameters (Z', S:B, R2, HillSlope) were checked for every IC50 curve.

Kinetic solubility = format: physicochemical; conditions: aqueous buffer, kinetic from dmso stock, phosphate buffer 50 mM, pH 7.4, 1% DMSO, 37 °C
Procedure: Test compounds and assay controls (sulfaphenazole and α-naphtoflavone) were serially diluted in DMSO by factor 3.3x, 3x, 3.3x and 3x, resulting in a total of 5 different concentrations. Phosphate buffer (50 mM, pH 7.4) was spiked with diluted test compounds and controls with final concentration range in the assay as follows: 100, 30, 10, 3 and 1 µM (1% DMSO). Plate was then incubated by gentle shaking (200–300 rpm) for 1 h and 45 min at 37 °C. After additional15 min on room temperature (without shaking), plate absorbance at 620 nm was measured with microplate reader Tecan, Infinite F500 (total incubation time = 2 h).

A549 [6] = assay: Cell viability assay, 3D hanging drop cell culture (CellTiter GLO 3D); format: cell-based; conditions: Homo sapiens; A549, 3D hanging drop cell culture, 72 h; ±SD, N = 2; read-out: IC50 antitumor activity A549 3D
Procedure: as §4, §1, §3

HCC827 [7] = assay: as above; format: cell-based; conditions: Homo sapiens; HCC827, 3D hanging drop cell culture, 72 h; ±SD, N = 2; read-out: IC50 antitumor activity HCC827 3D
Procedure: as §4, §1, §3

NCI-H358 [8] = assay: as above; format: cell-based; conditions: Homo sapiens; NCI-H358, 3D hanging drop cell culture, 72 h; ±SD, N = 2; read-out: IC50 antitumor activity NCI-H358 3D
Procedure: as §4, §1, §3

[9] = Chromatographic lipophilicity study (Chrom logD7.4); format: physicochemical; conditions: gradient reverse-phase HPLC (Phenomenex Luna C18 column); pH 7.4, gradient reverse-phase HPLC, from CHI7.4
Procedure: In order to determine the lipophilicity range, Chromatographic Hydrophobicity Index was measured by gradient reverse-phase HPLC at physiological pH. Sample working solutions were prepared from 10 mM DMSO stock solutions by dilution with acetonitrile to a final concentration of 1.25 mM and analysed on Agilent 1100 Series liquid chromatography system with HPLC diode-array detector (DAD) coupled with Micromass Quattro micro API mass spectrometer. Samples were injected onto an HPLC column (Phenomenex Luna C18, 50 × 3 mm, 5 µm) and eluted with a gradient at room temperature (sample temperature 15 °C). The mobile phase was composed of 50 mM Ammonium acetate, pH = 7.4 and acetonitrille. A total run time was 5 min, with the flow rate of 1 ml/min (under gradient conditions). The HPLC system was initially calibrated using the calibration set of 10 compounds with literature CHI values. The experimentally determined gradient retention times were plotted against the CHI7.4 values published in the literature resulting in the equation obtained from linear regression analysis. This equation was further used for the calculation of CHI7.4 for test compounds from determined retention times of the main chromatographic peak from UV chromatogram for each compound. The obtained CHI7.4 values were further converted to Chrom log D7.4 as follows: CHI7.4 × 0.0857 − 2.

| Compound | IC50 (HCC827 [1]) [µM] | IC50 (A549 [2]) [µM] | IC50 (HCC827 [3]) [µM] | IC50 (NCI-H358 [4]) [µM] | IC50 (A549 [5]) [µM] | solubility kinetic at 2 h (Kinetic solubility) [µM] | IC50 (A549 [6]) [µM] | IC50 (HCC827 [7]) [µM] | IC50 (NCI-H358 [8]) [µM] | chromatographic logD [9] |
| --- | --- | --- | --- | --- | --- | --- | --- | --- | --- | --- |
| c1ccc2sc(-c3nc4cc(C5=NCCCN5)ccc4[nH]3)cc2c1 [Compound 6d, 2-(Benzo[b]thiophen-2-yl)-5(6)–(3,4,5,6-tetrahydropyrimidin-1-ium-2-yl)benzimidazole chloride] | > 100 | > 50 | > 50 | > 50 | > 50 | 10 to 30 | > 100 | > 100 | > 100 | 2.43 |
| Cl.c1ccc2sc(-c3nc4ccc(C5=NCCCN5)cc4s3)nc2c1 [Compound 5g, 2-(Benzothiazole-2-yl)-6–(3,4,5,6-tetrahydropyrimidin-1-ium-2-yl)benzothiazole chloride] | 17 ± 0.93 | 41 ± 0.54 | 19 ± 2.21 | 26 ± 0.3 | 7 ± 2.31 | 30 to 100 | 15 ± 1.35 | 17 ± 0.93 | 31 ± 0.05 | 2.71 |
| FC(F)(F)c1ccc(-c2nc3cc(C4=NCCCN4)ccc3[nH]2)cc1 [Compound 6c, 2–(4-Trifluoromethylphenyl)-5(6)–(3,4,5,6-tetrahydropyrimidin-1-ium-2-yl)benzimidazole chloride] | > 100 | > 50 | > 50 | > 50 | > 50 | > 100 | > 100 | > 100 | > 100 | 2.6 |
| c1ccc2c(c1)cc(-c1nc3cc(C4=NCCCN4)ccc3[nH]1)c1ccccc12 [Compound 6g, 2-(Phenanthrene-9-yl)-5(6)–(3,4,5,6-tetrahydropyrimidin-1-ium-2-yl)benzimidazole chloride] | > 100 | > 50 | > 50 | > 50 | > 50 | 30 to 100 | > 100 | > 100 | > 100 | 3.27 |
| Cl.c1ccc2sc(-c3nc4ccc(C5=NCCCN5)cc4s3)cc2c1 [Compound 5e, 2-(Benzo[b]thiophen-2-yl)-6–(3,4,5,6-tetrahydropyrimidin-1-ium-2-yl)benzothiazole chloride] | 24 ± 7.63 | 36 ± 6.37 | 7 ± 0.12 | 16 ± 0.98 | 16 ± 0.39 | 30 to 100 | 23 ± 6.24 | 22 ± 9.45 | 34 ± 0.16 | 3.19 |
| Cl.c1ccc2cc(-c3nc4ccc(C5=NCCCN5)cc4s3)ccc2c1 [Compound 5h, 2-(Naphthalene-2-yl)-6–(3,4,5,6-tetrahydropyrimidin-1-ium-2-yl)benzothiazole chloride] | 12 ± 0.26 | 38 ± 3.68 | 6 ± 0.05 | 10 ± 1 | 10 ± 0.78 | 10 to 30 | 14 ± 0.38 | 12 ± 0.26 | 31 ± 0.33 | 3.31 |
| Cl.c1ccc2nc(-c3nc4ccc(C5=NCCCN5)cc4s3)ccc2c1 [Compound 5d, 2-(Quinoline-2-yl)-6–(3,4,5,6-tetrahydropyrimidin-1-ium-2-yl)benzothiazole chloride] | 32 ± 11.7 | > 50 | 14 ± 2.09 | 20 ± 2.53 | 1 | 30 to 100 | 16 ± 1.3 | > 100 | 40 ± 4.89 | 2.87 |
| Cl.N#Cc1ccc(-c2nc3ccc(C4=NCCCN4)cc3s2)cc1 [Compound 5b, 2–(4-Cyanophenyl)-6–(3,4,5,6-tetrahydropyrimidin-1-ium-2-yl)benzothiazole chloride] | > 100 | > 50 | > 50 | > 50 | > 50 | > 100 | 60 ± 1.44 | > 100 | > 100 | 2.18 |
| c1ccc2c(-c3nc4ccc(C5=NCCCN5)cc4[nH]3)c[nH]c2c1 [Compound 6e, 2-(1H-Indol-3-yl)-5(6)–(3,4,5,6-tetrahydropyrimidin-1-ium-2-yl)benzimidazole chloride] | > 100 | > 50 | > 50 | > 50 | > 50 | 10 to 30 | > 100 | > 100 | > 100 | 1.38 |
| c1ccc2cc(-c3nc4cc(C5=NCCCN5)ccc4[nH]3)ccc2c1 [Compound 6f, 2-(Naphthalene-2-yl)-5(6)–(3,4,5,6-tetrahydropyrimidin-1-ium-2-yl)benzimidazole chloride] | > 100 | > 50 | > 50 | > 50 | > 50 | 30 to 100 | > 100 | > 100 | > 100 | 2.18 |
| Cl.FC(F)(F)c1ccc(-c2nc3ccc(C4=NCCCN4)cc3s2)cc1 [Compound 5c, 2–(4-Trifluoromethylphenyl)-6–(3,4,5,6-tetrahydropyrimidin-1-ium-2-yl)benzothiazole chloride] | 21 ± 1.41 | 34 ± 8.65 | 7 ± 0.45 | 23 ± 0.79 | 48 ± 0.73 | > 100 | 16 ± 0.65 | 12 ± 0.16 | 34 ± 0.7 | 3.31 |

Reference: article PMC7801115, “Preclinical in vitro screening of newly synthesised amidino substituted benzimidazoles and benzothiazoles” (Journal of Enzyme Inhibition and Medicinal Chemistry, 2021)
